pEC50: −log10 of the molar value. Where two headings read alike, the source gives them in different places. No end group written: not given here.

The record followed here is US6972319B1, “Pituitary adenylate cyclase activating peptide (PACAP)receptor 3 (R3) agonists and their pharmacological methods of use” (priority 1999, dated 2005).

The experiment concerns the target T1, PACAP-R3 (Homo sapiens, UniProt P41587).
T1 sequence (P41587 24-438): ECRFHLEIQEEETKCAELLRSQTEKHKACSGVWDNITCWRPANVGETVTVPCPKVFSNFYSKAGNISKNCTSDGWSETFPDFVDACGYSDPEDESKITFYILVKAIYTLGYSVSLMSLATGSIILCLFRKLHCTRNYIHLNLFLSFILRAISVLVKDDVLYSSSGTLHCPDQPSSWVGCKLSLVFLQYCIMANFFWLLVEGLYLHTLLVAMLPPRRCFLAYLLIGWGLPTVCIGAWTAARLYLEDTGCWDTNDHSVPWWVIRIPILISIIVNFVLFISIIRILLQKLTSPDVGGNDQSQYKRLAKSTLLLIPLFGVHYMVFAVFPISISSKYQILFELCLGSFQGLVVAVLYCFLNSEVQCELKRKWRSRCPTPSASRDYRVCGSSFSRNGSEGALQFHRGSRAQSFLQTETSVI
Description: Cyclic AMP SPA on CHO cells expressing PACAP R3. The format is cell-based. Also noted: expressed in transfected cells; host or cells: CHO cells (Geneticin selection). To be noted: for R3 Selectivity: ratio of EC50 at R2 versus EC50 at R3. On the procedure: CHO cells expressing the PACAP R3 were plated in 96-well plates (Costar) at 8×10^4 cell/well and grown at 37 C. for 24 hours in α MEM+nucleosides+glutamine (Giobco BRL), 10% FBS, 100 μg/ml Pen/Strep, 0.3 mg/ml glutamine, 1 mM HEPES, 0.5 mg/ml Geneticin (Gibco BRL). The media was removed and the plates were washed with PBS. The cells were incubated with a peptide, in Hepes-PBS-BSA with 0.4 mg/mlSoybean Trypsin Inhibitor, 0.5 mg/ml Bacitracin, 100 uM IBMX, for 15 min at 37 C. Cyclic AMP in the cell extracts was quantitated using the cAMP SPA direct screening assay system (Amersham Pharmacia Biotech Inc, Piscataway, N.J.,). The peptides shown in Table 3 were assayed for cAMP activity.
EC50 is defined as the concentration of the polypeptide at which 50% of maximum PACAP27 activity is achieved. “NA” denotes no detectable activities. “R3 Selectivity” is derived from the ratio of EC50 at R2 versus EC50 at R3.

Setting [1] is: cAMP SPA, CHO cells transfected with PACAP-R3, concentration at which 50% of maximum PACAP27 activity is achieved, NA = no detectable activities, read-out: R3 EC50.

For the molecule `CC[C@H](C)[C@H](NC(=O)[C@@H](NC(=O)[C@H](CC(N)=O)NC(=O)[C@H](CC(C)C)NC(=O)[C@H](Cc1ccc(O)cc1)NC(=O)[C@H](CCCCN)NC(=O)[C@H](CCCCN)NC(=O)[C@H](C)NC(=O)[C@H](C)NC(=O)[C@H](CC(C)C)NC(=O)[C@H](CCC(N)=O)NC(=O)[C@H](CCCCN)NC(=O)[C@H](CCCNC(=N)N)NC(=O)[C@H](CC(C)C)NC(=O)[C@H](CCCNC(=N)N)NC(=O)[C@@H](NC(=O)[C@H](Cc1ccc(O)cc1)NC(=O)[C@H](CC(N)=O)NC(=O)[C@H](CC(=O)O)NC(=O)[C@@H](NC(=O)[C@H](Cc1ccccc1)NC(=O)[C@@H](NC(=O)[C@H](C)NC(=O)[C@H](CC(=O)O)NC(=O)[C@H](CO)NC(=O)[C@@H](N)Cc1c[nH]cn1)C(C)C)[C@@H](C)O)[C@@H](C)O)[C@@H](C)O)C(=O)N[C@@H](CCCCN)C(=O)N[C@@H](CC(N)=O)C(=O)N[C@@H](CCCCN)C(=O)N[C@@H](CCCNC(=N)N)C(=O)N[C@@H](Cc1ccc(O)cc1)C(=O)O` [Peptide R3P67], the pEC50 under setting [1] was 9.52.
For `CC[C@H](C)[C@H](NC(=O)[C@H](CC(=O)O)NC(=O)[C@H](CC(N)=O)NC(=O)[C@H](CC(C)C)NC(=O)[C@H](Cc1ccc(O)cc1)NC(=O)[C@H](CCCCN)NC(=O)[C@H](CCCCN)NC(=O)[C@@H](NC(=O)[C@H](C)NC(=O)[C@H](CC(C)C)NC(=O)[C@H](CCC(N)=O)NC(=O)[C@H](CCCCN)NC(=O)[C@H](CCCNC(=N)N)NC(=O)[C@H](CC(C)C)NC(=O)[C@H](CCCNC(=N)N)NC(=O)[C@@H](NC(=O)[C@H](Cc1ccc(O)cc1)NC(=O)[C@H](CC(N)=O)NC(=O)[C@H](CC(=O)O)NC(=O)[C@@H](NC(=O)[C@H](Cc1ccccc1)NC(=O)[C@@H](NC(=O)[C@H](C)NC(=O)[C@H](CC(=O)O)NC(=O)[C@H](CO)NC(=O)[C@@H](N)Cc1c[nH]cn1)C(C)C)[C@@H](C)O)[C@@H](C)O)C(C)C)C(=O)N[C@@H](CC(C)C)C(=O)N[C@@H](CCCCN)C(=O)NCC(=O)NCC(=O)N[C@H](C(=O)O)[C@@H](C)O` [Peptide R3P28], the pEC50 under setting [1] was 8.15.
The same measure, in the same setting: the same measure for “Ac-HSDAVFTENYTKLRKQLAAKKYLNDLKKGGT [Peptide R3P2]”: 8.52; for `CC[C@H](C)[C@H](NC(=O)[C@@H](NC(=O)[C@H](CC(N)=O)NC(=O)[C@H](CC(C)C)NC(=O)[C@H](Cc1ccc(O)cc1)NC(=O)[C@H](CCCCN)NC(=O)[C@H](CCCCN)NC(=O)[C@H](C)NC(=O)[C@H](C)NC(=O)[C@H](CCSC)NC(=O)[C@H](CCC(N)=O)NC(=O)[C@H](CCCCN)NC(=O)[C@H](CCCNC(=N)N)NC(=O)[C@H](CC(C)C)NC(=O)[C@H](CCCNC(=N)N)NC(=O)[C@@H](NC(=O)[C@H](Cc1ccc(O)cc1)NC(=O)[C@H](CC(N)=O)NC(=O)[C@H](CC(=O)O)NC(=O)[C@@H](NC(=O)[C@H](Cc1ccccc1)NC(=O)[C@@H](NC(=O)[C@H](C)NC(=O)[C@H](CC(=O)O)NC(=O)[C@H](CO)NC(=O)[C@@H](N)Cc1c[nH]cn1)C(C)C)[C@@H](C)O)[C@@H](C)O)[C@@H](C)O)C(=O)N[C@@H](CCCCN)C(=O)N[C@@H](CC(N)=O)C(=O)N[C@@H](CCCCN)C(=O)N[C@@H](CCCNC(=N)N)C(=O)N[C@@H](Cc1ccc(O)cc1)C(=O)O` [Peptide R3P70]: 9.40; for `CC[C@H](C)[C@H](NC(=O)[C@@H](NC(=O)[C@H](CC(N)=O)NC(=O)[C@H](CC(C)C)NC(=O)[C@H](Cc1ccc(O)cc1)NC(=O)[C@H](CCCCN)NC(=O)[C@H](CCCCN)NC(=O)[C@H](C)NC(=O)[C@H](C)NC(=O)[C@H](CC(C)C)NC(=O)[C@H](CCC(N)=O)NC(=O)[C@H](CCCCN)NC(=O)[C@H](CCCNC(=N)N)NC(=O)[C@H](CC(C)C)NC(=O)[C@H](CCCNC(=N)N)NC(=O)[C@@H](NC(=O)[C@H](Cc1ccc(O)cc1)NC(=O)[C@H](CCC(N)=O)NC(=O)[C@H](CC(=O)O)NC(=O)[C@@H](NC(=O)[C@H](Cc1ccccc1)NC(=O)[C@@H](NC(=O)[C@H](C)NC(=O)[C@H](CC(=O)O)NC(=O)[C@H](CO)NC(=O)[C@@H](N)Cc1c[nH]cn1)C(C)C)[C@@H](C)O)[C@@H](C)O)[C@@H](C)O)C(=O)N[C@@H](CCCCN)C(=O)N[C@@H](CC(N)=O)C(=O)N[C@@H](CCCCN)C(=O)N[C@@H](CCCNC(=N)N)C(=O)N[C@@H](Cc1ccc(O)cc1)C(=O)O` [Peptide R3P72]: 9.80.
Still for that read-out and setting: the same measure for `CC[C@H](C)[C@H](NC(=O)[C@H](CC(=O)O)NC(=O)[C@H](CC(N)=O)NC(=O)[C@H](CC(C)C)NC(=O)[C@H](Cc1ccc(O)cc1)NC(=O)[C@H](CCCCN)NC(=O)[C@H](CCCCN)NC(=O)[C@H](C)NC(=O)[C@H](C)NC(=O)[C@H](CC(C)C)NC(=O)[C@H](CCC(N)=O)NC(=O)[C@H](CCCCN)NC(=O)[C@H](CCCNC(=N)N)NC(=O)[C@H](CC(C)C)NC(=O)[C@H](CCCNC(=N)N)NC(=O)[C@@H](NC(=O)[C@H](Cc1ccc(O)cc1)NC(=O)[C@H](CC(N)=O)NC(=O)[C@H](CC(=O)O)NC(=O)[C@@H](NC(=O)[C@H](Cc1ccccc1)NC(=O)[C@@H](NC(=O)[C@H](C)NC(=O)[C@H](CC(=O)O)NC(=O)[C@H](CO)NC(=O)[C@@H](N)Cc1c[nH]cn1)C(C)C)[C@@H](C)O)[C@@H](C)O)C(=O)N[C@@H](CCCCN)C(=O)N[C@@H](CCCCN)C(=O)NCC(=O)O` [Peptide R3P32]: 9.40.
“HSDAVFTDDYTRLRKEVAAKKYLESIKDKRY [Peptide R3P173]” gave a pEC50 of 6.70.
In the case of “H-HSDAVFTDNYTRLRKQMAPKKYLNSIKNKR [Peptide R3P108]”, the “R3 Selectivity” value is 3. Besides, the pEC50 under setting [1] was 6.52.
As to `CC[C@H](C)[C@H](NC(=O)[C@H](CO)NC(=O)[C@H](CCC(N)=O)NC(=O)[C@H](CC(C)C)NC(=O)[C@H](Cc1ccc(O)cc1)NC(=O)[C@H](CCCCN)NC(=O)[C@H](CCCCN)NC(=O)[C@H](C)NC(=O)[C@H](C)NC(=O)[C@@H](NC(=O)[C@H](CCC(N)=O)NC(=O)[C@H](CCCCN)NC(=O)[C@H](CCCNC(=N)N)NC(=O)[C@H](CC(C)C)NC(=O)[C@H](CCCNC(=N)N)NC(=O)[C@@H](NC(=O)[C@H](Cc1ccc(O)cc1)NC(=O)[C@H](CC(N)=O)NC(=O)[C@H](CC(=O)O)NC(=O)[C@@H](NC(=O)[C@H](Cc1ccccc1)NC(=O)[C@@H](NC(=O)[C@H](C)NC(=O)[C@H](CC(=O)O)NC(=O)[C@H](CO)NC(=O)[C@@H](N)Cc1c[nH]cn1)C(C)C)[C@@H](C)O)[C@@H](C)O)C(C)C)C(=O)N[C@@H](CC(C)C)C(=O)N[C@@H](CCCCN)C(=O)N[C@@H](CCCCN)C(=O)N[C@@H](CCCNC(=N)N)C(=O)N[C@@H](Cc1ccc(O)cc1)C(=O)O` [Peptide R3P83], the pEC50 under setting [1] is 10.10.
As to `CC[C@H](C)[C@H](NC(=O)CNC(=O)[C@H](CC(=O)O)NC(=O)[C@H](CO)NC(=O)[C@@H](N)Cc1c[nH]cn1)C(=O)N[C@@H](Cc1ccccc1)C(=O)N[C@H](C(=O)N[C@@H](CC(=O)O)C(=O)N[C@@H](CO)C(=O)N[C@@H](CCCCN)C(=O)N[C@@H](CO)C(=O)N[C@@H](CCCNC(=N)N)C(=O)N[C@@H](Cc1ccc(O)cc1)C(=O)N[C@@H](CCCNC(=N)N)C(=O)N[C@@H](CCCCN)C(=O)N[C@@H](CCC(N)=O)C(=O)N[C@@H](CCSC)C(=O)N[C@@H](C)C(=O)N[C@H](C(=O)N[C@@H](CCCCN)C(=O)N[C@@H](CCCCN)C(=O)N[C@@H](Cc1ccc(O)cc1)C(=O)N[C@@H](CC(C)C)C(=O)N[C@@H](C)C(=O)N[C@@H](C)C(=O)N[C@H](C(=O)N[C@@H](CC(C)C)C(N)=O)C(C)C)C(C)C)[C@@H](C)O` [PAC10], the “R3 Selectivity” value came to 4.
In the case of `CC[C@H](C)[C@H](NC(=O)CNC(=O)[C@H](CC(=O)O)NC(=O)[C@H](CO)NC(=O)[C@@H](N)Cc1c[nH]cn1)C(=O)N[C@@H](Cc1ccccc1)C(=O)N[C@H](C(=O)N[C@@H](CC(=O)O)C(=O)N[C@@H](CO)C(=O)N[C@@H](Cc1ccc(O)cc1)C(=O)N[C@@H](CO)C(=O)N[C@@H](CCCNC(=N)N)C(=O)N[C@@H](Cc1ccc(O)cc1)C(=O)N[C@@H](CCCNC(=N)N)C(=O)N[C@@H](CCCCN)C(=O)N[C@@H](CCC(N)=O)C(=O)N[C@@H](CCSC)C(=O)N[C@@H](CCCCN)C(=O)N[C@H](C(=O)N[C@@H](CCCCN)C(=O)N[C@@H](CCCCN)C(=O)N[C@@H](Cc1ccc(O)cc1)C(=O)N[C@@H](CC(C)C)C(=O)N[C@@H](C)C(=O)N[C@@H](C)C(=O)N[C@H](C(=O)N[C@@H](CC(C)C)C(N)=O)C(C)C)C(C)C)[C@@H](C)O` [PAC18], the pEC50 under setting [1] is 8.96.
The same measure, in the same setting: in the case of HKDGIFTDSYSRYRKQMAVKKYLAAVL-NH2 [PAC2] it was 7.47.
